Test results from PMC5041162, “Chemistry and Molecular Dynamics Simulations of Heme b-HemQ and Coproheme-HemQ” (Biochemistry, 2016).

Experiments:
SaHemQ = format: binding, Staphylococcus aureus
Method: Differential scanning calorimetry (DSC) measurements were performed using a VP-capillary DSC microcalorimeter from Microcal with a cell volume of 137 μL. The measurements were controlled by the VP-viewer program, and the instrument was equipped with an autosampler for 96-well plates. Samples were analyzed using a programmed heating scan rate of 60 °C h^–1 over a temperature range from 20 to 100 °C, and the cell pressure was approximately 60 psi (4.136 bar). DSC thermograms were corrected for buffer baseline and protein concentration. Apo-, heme b-, or coproheme-LmHemQ and SaHemQ (5 μM each) in 50 mM phosphate buffer (pH 7.0) were used for each measurement. For data analysis and conversion, the Microcal origin software was used. Heat capacity (Cp) was expressed in kilocalories per mole per kelvin. Data points were fitted to non-two-state equilibrium unfolding models by the Lavenberg–Marquardt (LM) nonlinear least-squares method.

[1] = system: apo-SaHemQ and apo-LmHemQ; format: binding, S. aureus and L. monocytogenes
Method: (§1) Time-resolved binding of coproheme to apo-HemQ was monitored using a stopped-flow apparatus equipped with a diode array detector (model SX-18MV, Applied Photophysics), in the conventional mode. […] The fastest mixing time was 1 ms. […]. Experiments were conducted in 50 mM phosphate buffer (pH 7.0). Reactions were simulated, and rates were estimated using Pro-Kineticists software (Applied Photophysics). The apparent second-order rate constants, kon, were obtained from the slope of a plot of kobs versus coproheme concentration.

[2] = target: T1, apo-SaHemQ (HemQ from Staphylococcus aureus) (Staphylococcus aureus, UniProt A6QEP0); format: binding; settings: pH 7
T1 construct: poly-His (C); made in house; host or cells: Escherichia coli BL21(DE3)pLysS
T1 sequence (A6QEP0 whole entry): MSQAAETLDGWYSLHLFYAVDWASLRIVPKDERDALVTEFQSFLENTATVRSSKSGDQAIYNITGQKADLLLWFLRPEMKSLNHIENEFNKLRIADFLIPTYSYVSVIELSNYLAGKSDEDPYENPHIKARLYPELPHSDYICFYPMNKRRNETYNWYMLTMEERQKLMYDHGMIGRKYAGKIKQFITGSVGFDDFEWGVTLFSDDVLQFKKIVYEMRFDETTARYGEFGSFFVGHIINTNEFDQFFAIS
Method: as §1

[3] = target: T2, apo-LmHemQ (HemQ from Listeria monocytogenes) (Listeria monocytogenes serovar 1/2a, UniProt Q8Y5F1); format: binding; settings: pH 7
T2 construct: made in house; host or cells: Escherichia coli
T2 sequence (Q8Y5F1 whole entry): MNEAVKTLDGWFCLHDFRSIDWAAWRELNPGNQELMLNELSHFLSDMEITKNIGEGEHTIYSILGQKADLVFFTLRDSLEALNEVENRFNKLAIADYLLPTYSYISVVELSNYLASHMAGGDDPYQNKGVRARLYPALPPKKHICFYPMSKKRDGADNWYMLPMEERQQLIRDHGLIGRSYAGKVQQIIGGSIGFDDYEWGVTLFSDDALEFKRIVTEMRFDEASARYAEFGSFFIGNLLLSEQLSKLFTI
Method: as §1

apo-myoglobin = settings: cited from earlier work

SMILES | increase of Tm when coproheme binds (SaHemQ) | rate of coproheme binding, fast phase [1] | kon, binding of coproheme to apo-HemQ, first (fast) phase [2] | kon, binding of coproheme to apo-HemQ, second (slow) phase [2] | kon, binding of coproheme to apo-HemQ, first (fast) phase [3] | kon, binding of coproheme to apo-HemQ, second (slow) phase [3] | KD of the prosthetic group to apo-myoglobin (apo-myoglobin)
CC1=C(CCC(=O)O)c2cc3[n-]c(cc4nc(cc5[n-]c(cc1n2)c(CCC(=O)O)c5C)C(C)=C4CCC(=O)O)c(CCC(=O)O)c3C.[Fe] [coproheme, iron coproporphyrin III] | 14 °C | 1.5–2 × 10^8 M^–1 s^–1 | ~2.0 × 10^8 M^–1 s^–1 | 3.7 × 10^6 M^–1 s^–1 | ~1.5 × 10^8 M^–1 s^–1 | 2.2 × 10^6 M^–1 s^–1 | –
C=CC1=C(C)c2cc3[n-]c(cc4nc(cc5[n-]c(cc1n2)c(C)c5CCC(=O)O)C(CCC(=O)O)=C4C)c(C)c3C=C.[Fe+3] [hemin] | – | – | – | – | – | – | low nanomolar range
